Here are results for 23 compounds from patent publication US20250340557A1, “PYRIMIDINE DERIVATIVE” (ASKA PHARMACEUTICAL CO., LTD., priority 2022, published 2025).

The target in this assay is T1, human mPGES-1 (Homo sapiens, UniProt O14684).
T1 construct: made in house; host or cells: COS-1 cells (transient transfection; microsomal fraction used as enzyme)
T1 sequence (O14684 1-152): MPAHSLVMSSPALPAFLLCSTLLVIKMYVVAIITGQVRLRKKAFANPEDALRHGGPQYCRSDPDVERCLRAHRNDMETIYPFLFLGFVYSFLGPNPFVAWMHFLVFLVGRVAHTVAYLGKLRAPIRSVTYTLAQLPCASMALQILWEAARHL
Nature of the assay: Test for mPGES-1 inhibitory activity (microsomal enzyme, PGE2 EIA). In kind it is biochemical. The note with it: microsomes from COS-1 cells transfected with human mPGES-1 cDNA; substrate PGH2 1 μM; 4° C., 4 minutes; PGE2 measured by EIA; read-out: h mPGES1 IC50. The protocol:
Test Example 1: Test for mPGES-1 Inhibitory Activity
Microsomes were prepared from COS-1 cells transiently transfected with a plasmid containing human mPGES-1 cDNA, and used as mPGES-1 enzyme. The mPGES-1 enzyme was diluted with a sodium phosphate buffer (pH 7.2) containing reduced glutathione (2.5 mM) and EDTA (1 mM), DMSO or a DMSO solution of a test compound (final concentration of DMSO was 2%) was added to the enzyme, and the mixture was preincubated at 4° C. for 15 minutes. Then, PGH2 (Prostaglandin H2) as the substrate was added at a final concentration of 1 μM to start the enzymatic reaction, and after incubation at 4° C. for 4 minutes, a solution of ferric chloride (25 mM) and citric acid (50 mM) was added to terminate the enzymatic reaction. Generated PGE2 (Prostaglandin E2) was measured by using Prostaglandin E2 Express EIA Kit (Cayman Chemical). IC50 values were determined by using a standard method.
In general, IC50 refers to the midpoint of a concentration-inhibition curve. As to `O=C(NCc1ccc(C(F)(F)F)c(-c2nc(C(F)(F)F)cc(=O)[nH]2)c1)C1CCN(c2ccc(C(F)(F)F)cn2)CC1` [Example 50, N-{3-[6-oxo-4-(trifluoromethyl)-1,6-dihydropyrimidin-2-yl]-4-(trifluoromethyl)benzyl}-1-[5-(trifluoromethyl)pyridin-2-yl]piperidine-4-carboxamide], the IC50 is below 1 nM. The same measure for `Cc1nc(-c2c(C(F)(F)F)ccc(CNC(=O)C3(F)CCN(c4ccc(C(F)(F)F)cn4)CC3)c2F)[nH]c(=O)c1F` [Example 51, 4-fluoro-N-[2-fluoro-3-(5-fluoro-4-methyl-6-oxo-1,6-dihydropyrimidin-2-yl)-4-(trifluoromethyl)benzyl]-1-[5-(trifluoromethyl)pyridin-2-yl]piperidine-4-carboxamide]: below 1 nM; for `Cc1nc(-c2c(C(F)(F)F)ccc(CNC(=O)C3CCN(c4ncc(Cl)cc4F)CC3)c2F)[nH]c(=O)c1F` [Example 52, 1-(5-chloro-3-fluoropyridin-2-yl)-N-[2-fluoro-3-(5-fluoro-4-methyl-6-oxo-1,6-dihydropyrimidin-2-yl)-4-(trifluoromethyl)benzyl]piperidine-4-carboxamide]: 15 nM; for `Cc1cc(=O)[nH]c(-c2c(C(F)(F)F)ccc(CNC(=O)C3CCN(c4ccc(OC(F)(F)F)cn4)CC3)c2F)n1` [Example 53, N-[2-fluoro-3-(4-methyl-6-oxo-1,6-dihydropyrimidin-2-yl)-4-(trifluoromethyl)benzyl]-1-[5-(trifluoromethoxy)pyridin-2-yl]piperidine-4-carboxamide]: 49 nM. In the case of `O=C(NCc1ccc(C(F)(F)F)c(-c2nc(C(F)F)cc(=O)[nH]2)c1F)C1CCN(c2ncc(C(F)(F)F)cc2F)CC1` [Example 55, N-{3-[4-(difluoromethyl)-6-oxo-1,6-dihydropyrimidin-2-yl]-2-fluoro-4-(trifluoromethyl)benzyl}-1-[3-fluoro-5-(trifluoromethyl)pyridin-2-yl]piperidine-4-carboxamide], the IC50 was below 1 nM.

As to `Cc1cc(=O)[nH]c(-c2c(C(F)(F)F)ccc(CNC(=O)C3(F)CCN(c4ccc(C(F)(F)F)cn4)CC3)c2F)n1` [Example 56, 4-fluoro-N-[2-fluoro-3-(4-methyl-6-oxo-1,6-dihydropyrimidin-2-yl)-4-(trifluoromethyl)benzyl]-1-[5-(trifluoromethyl)pyridin-2-yl]piperidine-4-carboxamide], the IC50 is 21 nM. With `CCc1nc(-c2c(C(F)(F)F)ccc(CNC(=O)C3CCN(c4ccc(Cl)cn4)CC3)c2F)[nH]c(=O)c1F` [Example 57, 1-(5-chloropyridin-2-yl)-N-[3-(4-ethyl-5-fluoro-6-oxo-1,6-dihydropyrimidin-2-yl)-2-fluoro-4-(trifluoromethyl)benzyl]piperidine-4-carboxamide], the IC50 was below 1 nM. With `O=C(NCc1ccc(C(F)(F)F)c(-c2nc(C(F)(F)F)cc(=O)[nH]2)c1F)C1CCN(c2ccc(F)cc2)CC1` [Example 58, N-{2-fluoro-3-[6-oxo-4-(trifluoromethyl)-1,6-dihydropyrimidin-2-yl]-4-(trifluoromethyl)benzyl}-1-(4-fluorophenyl)piperidine-4-carboxamide], the IC50 was below 1 nM. On to `Cc1cccc(N2CCC(C(=O)NCc3ccc(C(F)(F)F)c(-c4nc(C(F)(F)F)cc(=O)[nH]4)c3F)CC2)c1` [Example 59, N-{2-fluoro-3-[6-oxo-4-(trifluoromethyl)-1,6-dihydropyrimidin-2-yl]-4-(trifluoromethyl)benzyl}-1-(3-methylphenyl)piperidine-4-carboxamide], for which the IC50 was 4.2 nM.

For `Cc1cc(N2CCC(C(=O)NCc3ccc(C(F)(F)F)c(-c4nc(C(F)(F)F)cc(=O)[nH]4)c3F)CC2)ccc1F` [Example 60, N-{2-fluoro-3-[6-oxo-4-(trifluoromethyl)-1,6-dihydropyrimidin-2-yl]-4-(trifluoromethyl)benzyl}-1-(4-fluoro-3-methylphenyl)piperidine-4-carboxamide], the IC50 is below 1 nM.

Regarding `Cc1ccc(N2CCC(C(=O)NCc3ccc(C(F)(F)F)c(-c4nc(C(F)(F)F)cc(=O)[nH]4)c3F)CC2)cc1` [Example 61, N-{2-fluoro-3-[6-oxo-4-(trifluoromethyl)-1,6-dihydropyrimidin-2-yl]-4-(trifluoromethyl)benzyl}-1-(4-methylphenyl)piperidine-4-carboxamide], the IC50 was 0.87 nM. The same measure for `O=C(NCc1ccc(C(F)(F)F)c(-c2nc(C(F)(F)F)cc(=O)[nH]2)c1F)C1CCN(c2cccc(Cl)c2)CC1` [Example 62, 1-(3-chlorophenyl)-N-{2-fluoro-3-[6-oxo-4-(trifluoromethyl)-1,6-dihydropyrimidin-2-yl]-4-(trifluoromethyl)benzyl}piperidine-4-carboxamide]: below 1 nM; for `O=C(NCc1ccc(C(F)(F)F)c(-c2nc(C(F)(F)F)cc(=O)[nH]2)c1F)C1CCN(c2ccc(C(F)(F)F)cc2)CC1` [Example 63, N-{2-fluoro-3-[6-oxo-4-(trifluoromethyl)-1,6-dihydropyrimidin-2-yl]-4-(trifluoromethyl)benzyl}-1-[4-(trifluoromethyl)phenyl]piperidine-4-carboxamide]: 1.1 nM; for `O=C(NCc1ccc(C(F)(F)F)c(-c2nc(C(F)(F)F)cc(=O)[nH]2)c1F)C1CCN(c2ccc(Cl)cc2)CC1` [Example 64, 1-(4-chlorophenyl)-N-{2-fluoro-3-[6-oxo-4-(trifluoromethyl)-1,6-dihydropyrimidin-2-yl]-4-(trifluoromethyl)benzyl}piperidine-4-carboxamide]: below 1 nM.

On to `O=C(NCc1ccc(C(F)(F)F)c(-c2nc(C(F)(F)F)cc(=O)[nH]2)c1F)C1CCN(c2cccc(C(F)F)c2)CC1` [Example 65, 1-[3-(difluoromethyl)phenyl]-N-{2-fluoro-3-[6-oxo-4-(trifluoromethyl)-1,6-dihydropyrimidin-2-yl]-4-(trifluoromethyl)benzyl}piperidine-4-carboxamide], for which the IC50 is below 1 nM. On to `O=C(NCc1ccc(C(F)(F)F)c(-c2nc(C(F)(F)F)cc(=O)[nH]2)c1F)C1CCN(c2ccc(Cl)c(Cl)c2)CC1` [Example 66, 1-(3,4-dichlorophenyl)-N-{2-fluoro-3-[6-oxo-4-(trifluoromethyl)-1,6-dihydropyrimidin-2-yl]-4-(trifluoromethyl)benzyl}piperidine-4-carboxamide], for which the IC50 is below 1 nM. Regarding `O=C(NCc1ccc(C(F)(F)F)c(-c2nc(C(F)(F)F)cc(=O)[nH]2)c1F)C1CCN(c2cccc(C(F)(F)F)c2)CC1` [Example 67, N-{2-fluoro-3-[6-oxo-4-(trifluoromethyl)-1,6-dihydropyrimidin-2-yl]-4-(trifluoromethyl)benzyl}-1-[3-(trifluoromethyl)phenyl]piperidine-4-carboxamide], the IC50 was below 1 nM. In the case of `O=C(NCc1ccc(C(F)(F)F)c(-c2nc(C(F)(F)F)cc(=O)[nH]2)c1F)C1CCN(c2ccc(OC(F)(F)F)cc2)CC1` [Example 68, N-{2-fluoro-3-[6-oxo-4-(trifluoromethyl)-1,6-dihydropyrimidin-2-yl]-4-(trifluoromethyl)benzyl}-1-[4-(trifluoromethoxy)phenyl]piperidine-4-carboxamide], the IC50 is below 1 nM. For the compound `O=C(NCc1ccc(C(F)(F)F)c(-c2nc(C(F)(F)F)cc(=O)[nH]2)c1F)C1CCN(c2cccc(Cl)c2Cl)CC1` [Example 69, 1-(2,3-dichlorophenyl)-N-{2-fluoro-3-[6-oxo-4-(trifluoromethyl)-1,6-dihydropyrimidin-2-yl]-4-(trifluoromethyl)benzyl}piperidine-4-carboxamide], the IC50 turned out to be 8.4 nM. As to `O=C(NCc1ccc(C(F)(F)F)c(-c2nc(C(F)(F)F)cc(=O)[nH]2)c1F)C1CCN(c2ccc(Cl)cc2F)CC1` [Example 70, 1-(4-chloro-2-fluorophenyl)-N-{2-fluoro-3-[6-oxo-4-(trifluoromethyl)-1,6-dihydropyrimidin-2-yl]-4-(trifluoromethyl)benzyl}piperidine-4-carboxamide], the IC50 came to 10 nM. With `O=C(NCc1ccc(C(F)(F)F)c(-c2nc(C(F)(F)F)cc(=O)[nH]2)c1F)C1CCN(c2ccc(OC(F)F)cc2)CC1` [Example 71, 1-[4-(difluoromethoxy)phenyl]-N-{2-fluoro-3-[6-oxo-4-(trifluoromethyl)-1,6-dihydropyrimidin-2-yl]-4-(trifluoromethyl)benzyl}piperidine-4-carboxamide], the IC50 worked out at 10 nM.

Regarding `Cc1nc(-c2c(C(F)(F)F)ccc(CNC(=O)C3CCN(c4ccc(OC(F)(F)F)cc4)CC3)c2F)[nH]c(=O)c1F` [Example 72, N-[2-fluoro-3-(5-fluoro-4-methyl-6-oxo-1,6-dihydropyrimidin-2-yl)-4-(trifluoromethyl)benzyl]-1-[4-(trifluoromethoxy)phenyl]piperidine-4-carboxamide], the IC50 was below 1 nM. Regarding `Cc1nc(-c2c(C(F)(F)F)ccc(CNC(=O)C3CCN(c4ccc(Cl)c(Cl)c4)CC3)c2F)[nH]c(=O)c1F` [Example 73, 1-(3,4-dichlorophenyl)-N-[2-fluoro-3-(5-fluoro-4-methyl-6-oxo-1,6-dihydropyrimidin-2-yl)-4-(trifluoromethyl)benzyl]piperidine-4-carboxamide], the IC50 was found to be 4.4 nM.
